Assay results from US20100151104A1, “Preservative System For Beverages Based On Combinations Of Trans-Cinnamic Acid, Lauric Arginate, And Dimethyl Dicarbonate” (priority 2008, published 2010).

Assays:
Format in all cases: cell-based
[1] = tested on: Brettanomyces bruxellensus; experiment: Growth in 10% apple juice beverage with combinations of LAE & cinnamic acid; log (QA/Qa+QB/Qb) calculation
Description: (§1) Trans-cinnamic acid and lauric arginate were combined in the following beverage formulation: [table] […] The analysis of the interaction between lauric arginate and cinnamic acid can be refined through use of a mathematical method developed by Voorspuij and Nass (Arch. Int. pharmacodyn. 59:211 1957) (generally accepted among those practiced in the art.) Herein, the interactions between two active substances can be explored. First the quantity (Qa=Molar Cone) of compound A required for an end point (concentration required to stabilize product for 16 weeks) is established. Similarly, the quantity (Qb =Molar cone) of substance B required to establish the same endpoint is established. Thereafter, mixtures of A & B, in quantities QA & Qs are established that also define endpoints. […] If the sum of the ratios for a mixture of A & Bare=1, then the interaction is considered additive. […] Calculation of log (QA/Qa+QB/Qb) for LAE+trans Cinnamic Acid vs Brettanomyces bruzellensus

Brettanomyces nardensis = experiment: as above
Description: as §1, with “bruzellensus” left out

Saccharomyces cerevsiae = experiment: as above
Description: as §1, with “[table] • Values reflect amount of growth (normalized) to control (0 ppm LAE & 0 ppm Cinnamic acid) for each pH tested.” for “[table]”, “Saccharomyces […]” for “Brettanomyces bruzellensus”

[2] = tested on: seven bio-indicator strains (Zygosaccharomyce baili, Brettanomyces species, Saccharomyces cerevisiae, Paecilomyces lilacinus, Zygosaccharomyces bisporus …); experiment: Example 2: growth/no growth of seven bio-indicator strains in 4% apple juice beverage, 16 weeks; conditions: FIGS. 1a, 1b; stand alone; pH 3.4; 16 weeks at 25° C.
Description: A single preparation of base beverage was employed to prepare each of five tests and consisted of 4% apple juice, 68 g sucrose/L, 52 g glucose/L, 2 g fructose/L prepared in batch water that was formulated to 90 ppm hardness with calcium chloride and magnesium chloride. […] The total combined quantity of sodium malate and malic acid was near constant, but the ratio of malic acid and malate varied slightly given the presence or absence of lauric arginate or cinnamic acid. Where required, lauric arginate or cinnamic acid was supplemented from separately prepared stock solutions. Each of the five tests employed the same bio-indicator organisms; Growth (+) versus no growth (-) established by visual inspection or spectrophotometrically. […] Y3, Zygosaccharomyce baili, Pepsi isolate 906; C-7UP, Brettanomyces species, Pepsi Isolate; Spore, an ascospore preparation of Saccharomyces cerevisiae 99 a Pepsi Isolate; […], Zygosaccharomyces baili, ATCC 60484; Spores, M7, Paecilomyces lilacinus ATCC 90461; […], Zygosaccharomyces bisporus ATCC 52407; Spores, M4, Talaromvces flavus var. flavus ATCC 10512. Samples were incubated for period of 16 weeks at 25° C. in vessels protective against evaporation.

[3] = pH 3.0, LAE 0 ppm, Cinnamic Acid 10 ppm
[4] = pH 3.0, LAE 0 ppm, Cinnamic Acid 20 ppm
[5] = pH 3.0, LAE 0 ppm, Cinnamic Acid 50 ppm
[6] = pH 3.0, LAE 0 ppm, Cinnamic Acid 75 ppm
[7] = pH 3.0, LAE 0 ppm, Cinnamic Acid 100 ppm
[8] = pH 3.5, LAE 0 ppm, Cinnamic Acid 10 ppm
[9] = pH 3.5, LAE 0 ppm, Cinnamic Acid 20 ppm
[10] = pH 3.5, LAE 0 ppm, Cinnamic Acid 50 ppm
[11] = pH 3.5, LAE 0 ppm, Cinnamic Acid 75 ppm
[12] = pH 3.5, LAE 0 ppm, Cinnamic Acid 100 ppm
[13] = pH 4.0, LAE 0 ppm, Cinnamic Acid 10 ppm
[14] = pH 4.0, LAE 0 ppm, Cinnamic Acid 20 ppm
[15] = pH 4.0, LAE 0 ppm, Cinnamic Acid 50 ppm
[16] = pH 4.0, LAE 0 ppm, Cinnamic Acid 75 ppm
[17] = pH 4.0, LAE 0 ppm, Cinnamic Acid 100 ppm
[18] = stand alone, end point = concentration required to stabilize product for 16 weeks
[19] = pH 3.0, LAE 2.5 ppm, Cinnamic Acid 0 ppm
[20] = pH 3.0, LAE 5 ppm, Cinnamic Acid 0 ppm
[21] = pH 3.0, LAE 7.5 ppm, Cinnamic Acid 0 ppm
[22] = pH 3.0, LAE 10 ppm, Cinnamic Acid 0 ppm
[23] = pH 3.0, LAE 15 ppm, Cinnamic Acid 0 ppm
[24] = pH 3.5, LAE 2.5 ppm, Cinnamic Acid 0 ppm
[25] = pH 3.5, LAE 5 ppm, Cinnamic Acid 0 ppm
[26] = pH 3.5, LAE 7.5 ppm, Cinnamic Acid 0 ppm
[27] = pH 3.5, LAE 10 ppm, Cinnamic Acid 0 ppm
[28] = pH 3.5, LAE 15 ppm, Cinnamic Acid 0 ppm
[29] = pH 4.0, LAE 2.5 ppm, Cinnamic Acid 0 ppm
[30] = pH 4.0, LAE 5 ppm, Cinnamic Acid 0 ppm
[31] = pH 4.0, LAE 7.5 ppm, Cinnamic Acid 0 ppm
[32] = pH 4.0, LAE 10 ppm, Cinnamic Acid 0 ppm
[33] = pH 4.0, LAE 15 ppm, Cinnamic Acid 0 ppm

O=C(O)/C=C/c1ccccc1 [Cinnamic Acid, trans-cinnamic acid]
QA/Qa + QB/Qb ([1]; QLAE 0, QCA 75): 1.00 | QLAE/QLAE* ([1]; QLAE 0, QCA 75): 0.00 | QNaB/QNAB* ([1]; QLAE 0, QCA 75): 1.00 | log (QA/Qa + QB/Qb) ([1]; QLAE 0, QCA 75): 0.0000 | amount of growth (normalized) to control [1, 3]: 85% | amount of growth (normalized) to control [1, 4]: 82% | amount of growth (normalized) to control [1, 5]: 4% | amount of growth (normalized) to control [1, 6]: 1% | amount of growth (normalized) to control [1, 7]: 1% | amount of growth (normalized) to control [1, 8]: 90% | amount of growth (normalized) to control [1, 9]: 89% | amount of growth (normalized) to control [1, 10]: 27% | amount of growth (normalized) to control [1, 11]: 0% | amount of growth (normalized) to control [1, 12]: 0% | amount of growth (normalized) to control [1, 13]: 99% | amount of growth (normalized) to control [1, 14]: 96% | amount of growth (normalized) to control [1, 15]: 65% | amount of growth (normalized) to control [1, 16]: 1% | amount of growth (normalized) to control [1, 17]: 1% | QCA* (quantity of cinnamic acid alone required for the end point) [1, 18]: QCA* 75 | QA/Qa + QB/Qb (Brettanomyces nardensis; QLAE 0, QCA 50): 1.00 | QLAE/QLAE* (Brettanomyces nardensis; QLAE 0, QCA 50): 0.00 | QNaB/QNAB* (Brettanomyces nardensis; QLAE 0, QCA 50): 1.00 | log (QA/Qa + QB/Qb) (Brettanomyces nardensis; QLAE 0, QCA 50): 0.0000 | amount of growth (normalized) to control (Brettanomyces nardensis; [3]): 89% | amount of growth (normalized) to control (Brettanomyces nardensis; [4]): 67% | amount of growth (normalized) to control (Brettanomyces nardensis; [5]): 1% | amount of growth (normalized) to control (Brettanomyces nardensis; [6]): 0% | amount of growth (normalized) to control (Brettanomyces nardensis; [7]): 0% | amount of growth (normalized) to control (Brettanomyces nardensis; [8]): 88% | amount of growth (normalized) to control (Brettanomyces nardensis; [9]): 79% | amount of growth (normalized) to control (Brettanomyces nardensis; [10]): 2% | amount of growth (normalized) to control (Brettanomyces nardensis; [11]): 1% | amount of growth (normalized) to control (Brettanomyces nardensis; [12]): 1% | amount of growth (normalized) to control (Brettanomyces nardensis; [13]): 118% | amount of growth (normalized) to control (Brettanomyces nardensis; [14]): 101% | amount of growth (normalized) to control (Brettanomyces nardensis; [15]): 5% | amount of growth (normalized) to control (Brettanomyces nardensis; [16]): 2% | amount of growth (normalized) to control (Brettanomyces nardensis; [17]): 1% | QCA* (quantity of cinnamic acid alone required for the end point) (Brettanomyces nardensis; [18]): QCA* 50 | QA/Qa + QB/Qb (Saccharomyces cerevsiae; QLAE 0, QCA 300): 1.00 | QLAE/QLAE* (Saccharomyces cerevsiae; QLAE 0, QCA 300): 0.00 | QNaB/QNAB* (Saccharomyces cerevsiae; QLAE 0, QCA 300): 1.00 | log (QA/Qa + QB/Qb) (Saccharomyces cerevsiae; QLAE 0, QCA 300): 0.0000 | amount of growth (normalized) to control (Saccharomyces cerevsiae; [3]): 80% | amount of growth (normalized) to control (Saccharomyces cerevsiae; [4]): 74% | amount of growth (normalized) to control (Saccharomyces cerevsiae; [5]): 50% | amount of growth (normalized) to control (Saccharomyces cerevsiae; [6]): 26% | amount of growth (normalized) to control (Saccharomyces cerevsiae; [7]): 11% | amount of growth (normalized) to control (Saccharomyces cerevsiae; [8]): 96% | amount of growth (normalized) to control (Saccharomyces cerevsiae; [9]): 85% | amount of growth (normalized) to control (Saccharomyces cerevsiae; [10]): 61% | amount of growth (normalized) to control (Saccharomyces cerevsiae; [11]): 44% | amount of growth (normalized) to control (Saccharomyces cerevsiae; [12]): 22% | amount of growth (normalized) to control (Saccharomyces cerevsiae; [13]): 96% | amount of growth (normalized) to control (Saccharomyces cerevsiae; [14]): 87% | amount of growth (normalized) to control (Saccharomyces cerevsiae; [15]): 72% | amount of growth (normalized) to control (Saccharomyces cerevsiae; [16]): 54% | amount of growth (normalized) to control (Saccharomyces cerevsiae; [17]): 39% | QCA* (quantity of cinnamic acid alone required for the end point) (Saccharomyces cerevsiae; [18]): QCA* 300 | concentration required to inhibit all seven bio-indicator strains [2]: 1.61 mM

CCCCCCCCCCCC(=O)N[C@@H](CCCNC(=N)N)C(=O)OCC.Cl [LAE, ethyl-N-lauroyl-L-argniate hydrochloride]
amount of growth (normalized) to control [1, 19]: 97% | amount of growth (normalized) to control [1, 20]: 101% | amount of growth (normalized) to control [1, 21]: 96% | amount of growth (normalized) to control [1, 22]: 102% | amount of growth (normalized) to control [1, 23]: 94% | amount of growth (normalized) to control [1, 24]: 96% | amount of growth (normalized) to control [1, 25]: 106% | amount of growth (normalized) to control [1, 26]: 110% | amount of growth (normalized) to control [1, 27]: 114% | amount of growth (normalized) to control [1, 28]: 118% | amount of growth (normalized) to control [1, 29]: 115% | amount of growth (normalized) to control [1, 30]: 125% | amount of growth (normalized) to control [1, 31]: 124% | amount of growth (normalized) to control [1, 32]: 124% | amount of growth (normalized) to control [1, 33]: 131% | QLAE* (quantity of LAE alone required for the end point) [1, 18]: QLAE* 30 | QA/Qa + QB/Qb (Brettanomyces nardensis; QLAE 15, QCA 0): 1.00 | QLAE/QLAE* (Brettanomyces nardensis; QLAE 15, QCA 0): 1.00 | QNaB/QNAB* (Brettanomyces nardensis; QLAE 15, QCA 0): 0.00 | log (QA/Qa + QB/Qb) (Brettanomyces nardensis; QLAE 15, QCA 0): 0.0000 | amount of growth (normalized) to control (Brettanomyces nardensis; [19]): 89% | amount of growth (normalized) to control (Brettanomyces nardensis; [20]): 116% | amount of growth (normalized) to control (Brettanomyces nardensis; [21]): 90% | amount of growth (normalized) to control (Brettanomyces nardensis; [22]): 99% | amount of growth (normalized) to control (Brettanomyces nardensis; [23]): 0% | amount of growth (normalized) to control (Brettanomyces nardensis; [24]): 112% | amount of growth (normalized) to control (Brettanomyces nardensis; [25]): 86% | amount of growth (normalized) to control (Brettanomyces nardensis; [26]): 81% | amount of growth (normalized) to control (Brettanomyces nardensis; [27]): 57% | amount of growth (normalized) to control (Brettanomyces nardensis; [28]): 0% | amount of growth (normalized) to control (Brettanomyces nardensis; [29]): 109% | amount of growth (normalized) to control (Brettanomyces nardensis; [30]): 104% | amount of growth (normalized) to control (Brettanomyces nardensis; [31]): 97% | amount of growth (normalized) to control (Brettanomyces nardensis; [32]): 0% | amount of growth (normalized) to control (Brettanomyces nardensis; [33]): 0% | QLAE* (quantity of LAE alone required for the end point) (Brettanomyces nardensis; [18]): QLAE* 15 | QA/Qa + QB/Qb (Saccharomyces cerevsiae; QLAE 32, QCA 0): 1.00 | QLAE/QLAE* (Saccharomyces cerevsiae; QLAE 32, QCA 0): 1.00 | QNaB/QNAB* (Saccharomyces cerevsiae; QLAE 32, QCA 0): 0.00 | log (QA/Qa + QB/Qb) (Saccharomyces cerevsiae; QLAE 32, QCA 0): 0.0000 | amount of growth (normalized) to control (Saccharomyces cerevsiae; [19]): 97% | amount of growth (normalized) to control (Saccharomyces cerevsiae; [20]): 97% | amount of growth (normalized) to control (Saccharomyces cerevsiae; [21]): 86% | amount of growth (normalized) to control (Saccharomyces cerevsiae; [22]): 94% | amount of growth (normalized) to control (Saccharomyces cerevsiae; [23]): 42% | amount of growth (normalized) to control (Saccharomyces cerevsiae; [24]): 103% | amount of growth (normalized) to control (Saccharomyces cerevsiae; [25]): 104% | amount of growth (normalized) to control (Saccharomyces cerevsiae; [26]): 93% | amount of growth (normalized) to control (Saccharomyces cerevsiae; [27]): 105% | amount of growth (normalized) to control (Saccharomyces cerevsiae; [28]): 57% | amount of growth (normalized) to control (Saccharomyces cerevsiae; [29]): 101% | amount of growth (normalized) to control (Saccharomyces cerevsiae; [30]): 96% | amount of growth (normalized) to control (Saccharomyces cerevsiae; [31]): 91% | amount of growth (normalized) to control (Saccharomyces cerevsiae; [32]): 90% | amount of growth (normalized) to control (Saccharomyces cerevsiae; [33]): 79% | QLAE* (quantity of LAE alone required for the end point) (Saccharomyces cerevsiae; [18]): QLAE* 32 | concentration required to inhibit all seven bio-indicator strains [2]: 0.16 mM
